Source: patent US20150038545A1, “HYDROXYPHENYL PYRROLE COMPOUNDS CONTAINING AN HYDROXAMIC ACID AS HDAC INHIBITORS AND MEDICINAL APPLICATIONS THEREOF” (UNIVERSIDAD DEL PAÍS VASCO, priority 2011, published 2015)

How the values were obtained:
Calu-6 = experiment: Cancer cell growth inhibition (CellTiter-Glo), Calu-6; assay type: cell-based, Human; conditions: Homo sapiens; Lung Cancer, Calu-6, 72 h treatment
Experimental: (§1) Cell culture-based assays were used to evaluate the ability of compounds of the invention to inhibit cancer cell growth.
(§2) Cells were obtained from the American Type Culture Collection (ATCC). Cells were cultured at 37° C. with 5% CO2 in the appropriate growth medium (see table below), and harvested respectively during the logarithmic growth period and counted with hemocytometer. The cell viability was examined by trypan blue exclusion. Cell concentrations were adjusted to 5.56×10^4 cells/ml with respective medium.
(§3) Stock solutions of test compounds and positive drugs Doxorubicin (Zhejiang, Haizheng, China), Cisplatin (Nanjing Zhiyao, China) and Mitomycin (Zhejiang, Haizheng, China) were prepared in dimethyl sulphoxide (DMSO) or PBS at 20 mM.
(§4) In order to determine the IC50 for each compound, experiments were carried out in 96-well plates and the cell lines seeded at a density of 5,000 cells/well. […] All treatments were performed in triplicate. 10 μl of drug solution was added to each well and incubated for 72 hours. At the end of the incubation, 100 μl of the CellTiter-Glo Reagent were added to each well and the contents were mixed for 2 munites on an orbital shaker to induce cell lysis. The plate was incubated at room temperature for 10 minutes to stabilize luminiscent signal, and luminiscent was recorded. […] In order to calculate IC50 values, dose-responsive curves were fitted using nonlinear regression model with a sigmoidal dose response.

OVCAR3 = experiment: Cancer cell growth inhibition (CellTiter-Glo), OVCAR3; assay type: cell-based, Human; conditions: Homo sapiens, OVCAR-3; Ovarian Cancer, OVCAR3, 72 h treatment
Experimental: as §1, §2, §3, §4

BGC-823 = experiment: Cancer cell growth inhibition (CellTiter-Glo), BGC-823; assay type: cell-based, Human; conditions: Homo sapiens; Gastric Cancer, BGC-823, 72 h treatment
Experimental: as §1, §2, §3, §4

SK-HEP-1 = experiment: Cancer cell growth inhibition (CellTiter-Glo), SK-HEP-1; assay type: cell-based; conditions: Homo sapiens, SK-HEP1; Liver Cancer, SK-HEP-1, 72 h treatment
Experimental: as §1, §2, §3, §4

Hep3B = experiment: Cancer cell growth inhibition (CellTiter-Glo), Hep3B; assay type: cell-based, Human; conditions: Homo sapiens, Liver Cancer, 72 h treatment
Experimental: as §1, §2, §3, §4

DLD-1 = experiment: Cancer cell growth inhibition (CellTiter-Glo), DLD-1; assay type: cell-based, Human; conditions: Homo sapiens; Colorectal Cancer, DLD-1, 72 h treatment
Experimental: as §1, §2, §3, §4

RPMI-8226 = experiment: Cancer cell growth inhibition (CellTiter-Glo), RPMI-8226; assay type: cell-based, Human; conditions: Homo sapiens; Orthotopic Multiple Myeloma, RPMI-8226, 72 h treatment
Experimental: as §1, §2, §3, §4

MCF-7 = experiment: Cancer cell growth inhibition (CellTiter-Glo), MCF-7; assay type: cell-based, Human; conditions: Homo sapiens, MCF7; Breast Cancer, MCF-7, 72 h treatment
Experimental: as §1, §2, §3, §4

IC50 (Calu-6) | IC50 (OVCAR3) | IC50 (BGC-823) | IC50 (SK-HEP-1) | IC50 (Hep3B) | IC50 (DLD-1) | IC50 (RPMI-8226) | IC50 (MCF-7) | Structure (SMILES)
4.22 µM | 3.34 µM | 11.7 µM | 6.04 µM | 1.6 µM | 4.19 µM | 4.47 µM | 10.9 µM | O=C(CCCCCNC(=O)c1[nH]c(-c2ccc(O)cc2)cc1-c1ccccc1)NO [Example 2, N-(6-(hydroxyamino)-6-oxohexyl)-5-(4-hydroxyphenyl)-3-phenyl-1H-pyrrole-2-carboxamide]
2.79 µM | 3.3 µM | 2.16 µM | 4.03 µM | 1.61 µM | 1.62 µM | 0.7 µM | 1.75 µM | O=C(CCCCCNC(=O)c1[nH]c(-c2ccccc2)cc1-c1ccc(O)cc1)NO [Example 1, N-(6-(hydroxyamino)-6-oxohexyl)-3-(4-hydroxyphenyl)-5-phenyl-1H-pyrrole-2-carboxamide]
3.46 µM | 1.74 µM | 13.8 µM | 3.13 µM | 0.89 µM | 3.5 µM | 4.8 µM | 7.07 µM | O=C(CCCCCNC(=O)c1[nH]c(-c2ccc(O)cc2)cc1-c1ccsc1)NO [Example 6, N-(5-(hydroxycarbamoyl)pentyl)-5-(4-hydroxyphenyl)-3-(3-thienyl)-1H-pyrrole-2-carboxamide]
4.66 µM | 1.05 µM | 23.1 µM | 1.84 µM | 1.01 µM | 2.51 µM | 6.2 µM | 9.23 µM | O=C(CCCCCNC(=O)c1[nH]c(-c2ccc(O)cc2)cc1-c1ccoc1)NO [Example 5, 3-(3-furyl)-N-(5-(hydroxycarbamoyl)pentyl)-5-(4-hydroxy-phenyl)-1H-pyrrole-2-carboxamide]
